The text below walks through data of patent publication US6451814B1, “Heterocyclic β-3 adrenergic receptor agonists” (Wyeth, priority 2000, dated 2002).

Data set [1] deals with T1, human β3-adrenergic receptor (Homo sapiens, UniProt P13945).
T1 construct: Full length β3 AR clones (402 amino acids) containing the last 6 amino acids of hβ3—AR are prepared; expressed in transfected cells; host or cells: CHO cells
The data set is described as follows: cAMP response (SPA kit) in CHO cells transfected with human β3 adrenergic receptor. The settings on record: for EC50: CHO cells expressing human β3-AR, 10^-9 M to 10^-5 M, 30 min at 37° C., cAMP by SPA, read-out: EC50(β3); for IA(β3): maximal response of compound compared to maximal response of isoproterenol at 10^-5 M, CHO cells, human β3-AR. In kind it is cell-based.

T1 sequence (P13945 whole entry): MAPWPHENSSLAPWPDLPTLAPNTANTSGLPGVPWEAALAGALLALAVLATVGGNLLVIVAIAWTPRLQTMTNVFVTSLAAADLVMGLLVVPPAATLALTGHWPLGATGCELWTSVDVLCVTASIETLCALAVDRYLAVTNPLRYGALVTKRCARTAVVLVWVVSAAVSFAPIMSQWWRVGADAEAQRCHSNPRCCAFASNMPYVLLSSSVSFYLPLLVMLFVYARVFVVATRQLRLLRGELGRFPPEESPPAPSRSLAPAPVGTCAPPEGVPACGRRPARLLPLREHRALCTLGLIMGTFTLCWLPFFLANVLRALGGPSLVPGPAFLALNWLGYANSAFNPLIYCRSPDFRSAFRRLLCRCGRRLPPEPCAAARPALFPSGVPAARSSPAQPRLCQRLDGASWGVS

`O=C(NCc1ccccc1C(F)(F)F)N1CCC(Nc2ccc(CCNC[C@H](O)COc3ccc(O)cc3)cc2)CC1` [Example 33, 4-(4-{2-[(2S)-2-Hydroxy-3-(4-hydroxy-phenoxy)-propylamino]-ethyl}-phenylamino)-piperidine-1-carboxylic Acid 2-trifluoromethyl-benzylamide]: the melting point – broadly, the temperature of the solid-liquid transition – lay in the range of 83 to 86 °C. In data set [1], the EC50 (commonly the concentration that produces a half-maximal response) turned out to be 55 nM and the “IA(β3)” value was 0.78.

`O=C(NCc1ccc(-n2cccn2)cc1C(F)(F)F)N1CCC(Nc2ccc(CCNC[C@H](O)COc3ccc(O)cc3)cc2)CC1` [Example 34, 4-(4-{2-[(2S)-2-Hydroxy-3-(4-hydroxy-phenoxy)-propylamino]-ethyl}-phenylamino)-piperidine-1-carboxylic Acid 4-pyrazol-1-yl-2-trifluoromethyl-benzylamide] returned a melting point of 96 to 100 °C. In data set [1], the EC50 stood at 62 nM and the “IA(β3)” value is recorded as 0.83.

As to `CC(C)CCNC(=O)N1CCC(Nc2ccc(CCNC[C@H](O)COc3ccc(O)cc3)cc2)CC1` [Example 35, 4-(4-{2-[(2S)-2-Hydroxy-3-(4-hydroxy-phenoxy)-propylamino]-ethyl}-phenylamino)-piperidine-1-carboxylic Acid (3-methyl-butyl)-amide], the melting point lay within 72 to 77 °C. In addition, in data set [1], the EC50 amounted to 133 nM and the “IA(β3)” value came to 0.96.

`O=C(NCc1cc(F)ccc1F)N1CCC(Nc2ccc(CCNC[C@H](O)COc3ccc(O)cc3)cc2)CC1` [Example 37, 4-(4-{2-[(2S)-2-Hydroxy-3-(4-hydroxy-phenoxy)-propylamino]-ethyl}-phenylamino)-piperidine-1-carboxylic Acid 2,5-difluoro-benzylamide] yielded a melting point of 69 to 72 °C. Further, the “IA(β3)” value in data set [1] worked out at 0.92.

Turning to `O=C(NCc1ccc(F)cc1)N1CCC(Nc2ccc(OCCNC[C@H](O)COc3ccc(O)cc3)cc2)CC1` [Example 39, 4-(4-{2-[(2S)-2-Hydroxy-3-(4-hydroxy-phenoxy)-propylamino]-ethoxy}-phenylamino)-piperidine-1-carboxylic Acid 4-fluoro-benzylamide], the melting point is 73 to 77 °C. Moreover, in data set [1], the concentration giving a half-maximal response (EC50) came out at 36 nM and the “IA(β3)” value is listed as 0.9.

Take `O=C(Nc1ccccc1)N1CCC(Sc2ccc(CCNC[C@H](O)COc3ccc(O)cc3)cc2)CC1` [Example 40, 4-(4-{2-[(2S)-2-Hydroxy-3-(4-hydroxy-phenoxy)-propylamino]-ethyl}-phenylsulfanyl)-piperidine-1-carboxylic Acid Phenylamide]: the melting point was 121 °C. In data set [1], the EC50 amounted to 101 nM and the “IA(β3)” value amounted to 0.9.

In turn, `CCCCCCNC(=O)N1CCC(Sc2ccc(CCNC[C@H](O)COc3ccc(O)cc3)cc2)CC1` [Example 41, N-hexyl-4-{[4-(2-{[(2S)-2-hydroxy-3-(4-hydroxyphenoxy)propyl]amino}ethyl)phenyl]sulfanyl}-1-piperidinecarboxamide] came in with a melting point of 181 to 195 °C. In addition, in data set [1], the EC50 was 620 nM and the “IA(β3)” value was determined as 0.84.

Turning to `O=C(NCc1ccc(F)cc1)N1CCC(Sc2ccc(CCNC[C@H](O)COc3ccc(O)cc3)cc2)CC1` [Example 42, 4-(4-{2-[(2S)-2-Hydroxy-3-(4-hydroxy-phenoxy)-propylamino]-ethyl}-phenylsulfanyl)-piperidine-1-carboxylic Acid-4-fluorobenzylamide], the melting point was 181 to 183 °C. Further, in data set [1], the EC50 stood at 95 nM and the “IA(β3)” value is 0.72.

Molecule `O=C(NCC1(c2ccccc2)CCCC1)N1CCC(Sc2ccc(CCNC[C@H](O)COc3ccc(O)cc3)cc2)CC1` [Example 43, 4-(4-{2-[(2S)-2-Hydroxy-3-(4-hydroxy-phenoxy)-propylamino]-ethyl}-phenylsulfanyl)-piperidine-1-carboxylic Acid (1-phenyl-cyclopentylmethyl)-amide] displayed a melting point of 132 °C. In data set [1], the EC50 was 390 nM and the “IA(β3)” value came to 0.81.

As to `CCCCCCCCNC(=O)N1CCC(S(=O)(=O)c2ccc(CCNC[C@H](O)COc3ccc(O)cc3)cc2)CC1` [Example 47, 4-(4-{2-[(2S)-2-Hydroxy-3-(4-hydroxy-phenoxy)-propylamino]-ethyl}-benzenesulfonyl)-piperidine-1-carboxylic Acid Octylamide], the melting point lay in the range of 52 to 56 °C. Further, in data set [1], the EC50 was determined as 31 nM and the “IA(β3)” value was 1.

Regarding `CCCCCCCCNC(=O)N1CCC(S(=O)(=O)c2ccc(CCNC[C@H](O)COc3ccc(O)c(C)c3)cc2)CC1` [Example 48, 4-(4-{2-[(2S)-2-Hydroxy-3-(4-hydroxy-3-methyl-phenoxy)-propylamino]-ethyl}-benzenesulfonyl)-piperidine-1-carboxylic Acid Octylamide], the melting point lay within 58 to 71 °C. In addition, in data set [1], the 50% effective concentration (EC50) worked out at 50 nM and the “IA(β3)” value stood at 0.7.

As for `CS(=O)(=O)Nc1cc(OC[C@@H](O)CNCCc2ccc(NC3CCN(C(=O)NCc4cc(F)ccc4F)CC3)cc2)ccc1O` [Example 50, 4-(4-{2-[(2S)-2-Hydroxy-3-(4-hydroxy-3-methanesulfonylamino-phenoxy)-propylamino]-ethyl}-phenylamino)-piperidine-1-carboxylic Acid 2,5-difluoro-benzylamide], the melting point was 103 to 108 °C. In addition, the “IA(β3)” value in data set [1] is recorded as 1.

As for `CCOC(=O)C1CCN(C(=O)N2CCC(Nc3ccc(CCNC[C@H](O)c4ccc(O)c(NS(C)(=O)=O)c4)cc3)CC2)CC1` [Example 51, 1-[4-(4-{2-[(2R)-2-Hydroxy-2-(4-hydroxy-3-methanesulfonylamino-phenyl)-ethylamino]-ethyl}-phenylamino)-piperidine-1-carbonyl]-piperidine-4-carboxylic Acid Ethyl Ester], the melting point lay within 93 to 97 °C. Also, in data set [1], the EC50 is 1 nM and the “IA(β3)” value was found to be 0.82.

`O=C(NCCCCCCCCF)N1CCC(Nc2ccc(CCNC[C@H](O)COc3ccc(O)cc3)cc2)CC1` [Example 55, N-(8-Fluorooctyl)-4-[4-(2-{[(2S)-2-hydroxy-3-(4-hydroxyphenoxy)propyl]amino}ethyl)anilino]-1-piperidinecarboxamide] returned a melting point of 148 to 150 °C. Also, in data set [1], the 50% effective concentration (EC50) turned out to be 171 nM and the “IA(β3)” value amounted to 1.07.

With `COc1ccc(CCCCNC(=O)N2CCC(Nc3ccc(CCNCC(O)COc4ccc(O)cc4)cc3)CC2)cc1OC` (centres unmarked) [Example 57, 4-(4-{2-[2-Hydroxy-3-(4-hydroxy-phenoxy)-propylamino]-ethyl}-phenylamino)-piperidine-1-carboxylic Acid [4-(3,4-dimethoxy-phenyl)-butyl]-amide], the melting point was in the range of 60 to 62 °C. Moreover, the “IA(β3)” value in data set [1] was determined as 0.94.

For the molecule `CCCCCCCCNC(=O)N1CCC(Nc2ccc(CCNC[C@H](O)c3ccc(O)c(NS(C)(=O)=O)c3)cc2)CC1` [Example 59, 4-(4-{2-[(2R)-2-Hydroxy-2-(4-hydroxy-3-methanesulfonylamino-phenyl)-ethylamino]-ethyl}-phenylamino)-piperidine-1-carboxylic Acidoctylamide], the melting point was 160 to 162 °C. For the same molecule, in data set [1], the EC50 was found to be 3 nM and the “IA(β3)” value was found to be 1.

With `CCCCCCCCNC(=O)N1CCC(Nc2ccc(CCNC[C@H](O)COc3cccc4[nH]c(=O)[nH]c34)cc2)CC1` [Example 60, 4-(4-{2-[(2S)-2-Hydroxy-3-(2-oxo-2,3-dihydro-1H-benzoimidazol-4-yloxy)-propylamino]-ethyl}-phenylamino)-piperidine-1-carboxylic Acidoctylamide], the melting point lay in the range of 113 to 115 °C. In data set [1], the EC50 is 12 nM and the “IA(β3)” value is 0.45.

`CCOC(=O)C1CCN(C(=O)N2CCC(Nc3ccc(CCNC[C@H](O)COc4ccc(O)cc4)cc3)CC2)CC1` [Example 61, 1-[4-(4-{2-[(2S)-2-Hydroxy-3-(4-hydroxy-phenoxy)-propylamino]-ethyl}-phenylamino)-piperidine-1-carbonyl]-piperidine-4-carboxylic Acid Ethyl Ester] showed a melting point of 69 to 71 °C. In data set [1], the EC50 is 89 nM and the “IA(β3)” value is on record as 1.34.

The molecule `CCCCCCCCNC(=O)N1CCC(Nc2ccc(CCNC[C@H](O)COc3ccc(O)c(F)c3)cc2)CC1` [Example 65, 4-(4-{2-[(2S)-3-(3-Fluoro-4-hydroxy-phenoxy)-2-hydroxy-propylamino]-ethyl}-phenylamino)-piperidine-1-carboxylic Acid Octylamide] gave a melting point of 60 to 62 °C. Further, in data set [1], the EC50 is 300 nM and the “IA(β3)” value stood at 0.57.

`CCCCCCNC(=O)Nc1ccc(CNC(=O)N2CCC(Nc3ccc(CCNC[C@H](O)COc4ccc(O)cc4)cc3)CC2)cc1` [Example 67, 4-(4-{2-[(2S)-2-Hydroxy-3-(4-hydroxy-phenoxy)-propylamino]-ethyl}-phenylamino)-piperidine-1-carboxylic Acid 4-(3-hexyl-ureido)-benzylamide] yielded a melting point of 141 to 143 °C. Further, in data set [1], the EC50 came out at 29 nM and the “IA(β3)” value came to 0.92.

Molecule `O=C(NCCCC1CCCCC1)N1CCC(Nc2ccc(CCNC[C@H](O)COc3ccc(O)cc3)cc2)CC1` [Example 68, 4-(4-{2-[(2S)-2-Hydroxy-3-(4-hydroxy-phenoxy)-propylamino]-ethyl}-phenylamino)-piperidine-1-carboxylic Acid (3-cyclohexyl-propyl)-amide] showed a melting point of 69 to 71 °C. Besides, in data set [1], the concentration giving a half-maximal response (EC50) is 39 nM and the “IA(β3)” value was determined as 1.1.

`CCCCCCCCNC(=O)N1CCC(Nc2ccc(CCNC[C@H](O)COc3ccc(O)c4c3CCC(=O)N4)cc2)CC1` [Example 69, 4-(4-{2-[(2S)-2-Hydroxy-3-(8-hydroxy-2-oxo-1,2,3,4-tetrahydro-quinolin-5-yloxy)-propylamino]-ethyl}-phenylamino)-piperidine-1-carboxylicacid Octylamide] had a melting point of 83 to 85 °C. In addition, in data set [1], the “IA(β3)” value is given as 0.67.
